The values below come from patent publication US8575128B2, “Methods for transdifferentiation of body tissues” (priority 1999, dated 2013).

The subject of data set [1] is melanophores and xanthophores. As to conditions: for Direction of chromatophore transdifferentiation from macro observations and photographs of whole animals: fed as in Examples A-C; for Cells containing both melanosomes and pterinosomes (melanophore to xanthophore transdifferentiation), light microscopy: Gomori trichrome stained skin, zinc acetate 7 and 12 days; for Cells containing both melanosomes and pterinosomes (melanophore to xanthophore transdifferentiation), light microscopy / Time on feeding at which the animal died: substance sprinkled on food every other day; for Cells containing both melanosomes and pterinosomes (melanophore to xanthophore transdifferentiation), light microscopy / Colour of the animal by inspection: cGMP 22 days, GMP 67 days; for Identification as transdifferentiation agent by the assay: summary statement. The source says: Larval Axolotls have an epidermis on a thin basement membrane, under which is a thick collagen layer (green when stained with Gomori trichrome for light microscopy.) Only 3 types of cells are present immediately below and slightly embedded in the collagen layer-(a) fibroblasts, which are generally fusiform and have a characteristic light and ultrastructural appearance, (b) melanophores, which contain numerous round or oval black melanosomes, as well as some premelanosomes, and (c) xanthophores, which, contain organelles known as pterinosomes. These appear as vacuoles in light microscopy and vacuoles with wispy or concentric layered material in electron microscopy. In general, melanosomes are normally found only in melanophores and pterinosomes in xanthophores.
All Axolotls were 3-5 cm in length at the beginning of the experiment and were obtained from the Indiana University Axolotl Colony, Bloomington, Ind.).
Temperature was 22 °C with a 12 hour light/12 hour dark
photoperiod. Water was changed daily before feeding, and when the animals were removed from feeding an hour later. They were fed about every day. Every other day, the experimental substance was sprinkled on the beef or fish pellets. All experimental reagents were obtained from Sigma (St. Louis Mo.). […] For feeding, beef liver was placed on the raised bottom partially in and partially out of the water. This permitted the animal to sense the food in the water but prevented the cGMP sprinkled on the beef from washing away. […] For feeding the animals were transferred to smaller plastic containers (weighing canoes) which have one side sloped. The pellets were placed on the slope, partially in and partially out of the water. This permitted the animal to sense the food in the water but prevented the cGMP sprinkled on the pellet from washing away. Deer Park Spring Water (Breingsville, Pa.) was used exclusively.
The animals were observed about weekly under an Olympus SZ stereomicroscope and most were photographed prior to sacrifice or shortly (hours) after death. Animals were fixed in 10% Formalin and 4 mm punch biopsies of skin were processed routinely for histology (Gomori Trichrome) by Charles River Laboratories (Wilmington, Mass.). Slides were examined in an Olympus (Woodbury, N.Y.) BX40 microscope.
Three animals (a control and two GMP fed animals) were biopsied with a 2 mm punch and fixed in Trump=s fixative for 24 hours, and processed routinely for electron microscopy. They were postfixed in 2% osmium tetroxide, dehydrated in a serials of alcohols and embedded in Epon-Araldite (1:1). Processing and photography were performed at the Electron Imaging Facility, Rutger=s University, Piscataway, N.J.

Data set [2] deals with melanocytes. As to conditions: Dupin et al. 2000; cited from earlier work.
Data set [3] deals with human melanoma cell line G-361. The data set is described as follows: Transdifferentiation of G-361 melanoma cells in culture. Type of data set: cell-based. Set-up: Phenotypic changes in the cell population: dose or concentration left out as unconfirmed. Particulars: 7 days. Here is the method:
A human melanoma cell line. G-361, was purchased from the American Type Culture Collection (ATCC catalog number CRL-1424, Manassas, Va.) in a cryopreserved state. Upon receipt, the tube containing the frozen cells was rapidly thawed in a 371C water bath by swirling the bottom ⅓ of the tube for less than 2 minutes. All subsequent steps were conducted using standard methods of sterile technique. The cells were transferred to a T-25 flask containing 5 ml of pre-warmed McCoy=s 5A modified medium (Life Technologies, Rockville, Md.) and incubated at 371 C in a humidified CO2 incubator. After approximately 24 hours, the original medium was removed and replaced with fresh medium and the cells allowed to grow until they reached approximately 70-80% confluency with the medium being replaced every 2-3 days as needed. At this point, the cells were subcultured into Leighton tubes at low cell densities using well known typsin-EDTA subculturing techniques. After subculturing, the cells were allowed to re-establish their growth for 48 hours prior to administration of drugs.
Few cells resembled a normal melanocyte phenotype. […] The majority of the cells appeared to be epithelial in morphology. […] The microscopic phenotypic heterogeneity observed was compatible with karyotypic analysis provided by ATCC showing a heterogeneous population with regards to chromosome number.
Later, beta-carotene in tetrahydrofuran was added to McCoy=s 5A modified medium to a final concentration of about 33 mg/ml with a final concentration of 0.5% THF. This supplemented medium was added to the Leighton tubes after removal of un-supplemented medium and was replaced every 2 days during the 7 clay experimental period. At the end of 7 days, the cultures were fixed in methanol and the cover slips were Giemsa stained.
Methods: The melanoma cell line G-361, described in Example 1.4 above was used Guanosine was added to McCoy=s 5A modified medium to a final concentration of 3 mg/ml. This supplemented medium was added to the Leighton tubes after removal of unsupplemented medium and was replaced every 2 days during the 7 day experimental period. At the end of 7 days, the cultures were fixed in methanol and the cover slips were Giemsa stained.
Methods: The melanoma cells line G-361, described in Example 14 above was used Guanosine was added to McCoy=s 5A modified medium to final concentration of 3 mg/ml. This supplemented medium was added to the Leighton tubes after removal of un-supplemented medium and was replaced every 2 days for 7 days. Beta-carotene in THF was added to McCoy=s 5A modified medium at a final concentration of 33 mg/ml with a final concentration of 0.5% THF. […]

Data set [4] concerns chromatophores. Particulars: literature reports (Frost; Thibaudeau and Holder; Bagnara); cited from earlier work.

Values joined by “and” are separate entries in the source; they are usually repeats but may differ in a detail not shown here. Equal entries are not always repeated. “Also recorded” adds a separate entry of the source. Where no end group is shown, it is not given here.

Consider `Nc1cc[nH]c(=O)n1` [cytosine], for which the “Direction of chromatophore transdifferentiation from macro observations and photographs of whole animals” value in data set [1] is reported as “transdifferentiates xanthophores to melanophores”.

Consider “Endothelian 3: Factor reported by Dupin et al. to induce conversion of melanocytes into glial cells (CTCFTYKDKECVYYCHLDIIW; ends and bridges not checked; cysteine pairing not given here; UniProt P14138 97-117, looked up)”, for which, in data set [2], the “Conversion of melanocytes into glial cells” value is given as “induce the conversion of melanocytes into glial cells”.

With `CC(=O)[O-].CC(=O)[O-].[Zn+2]` [Zinc Acetate, reference compound], in data set [1], the “Cells containing both melanosomes and pterinosomes (melanophore to xanthophore transdifferentiation), light microscopy” value was “cells with both melanosomes and pterinosomes”; the “Time on feeding at which the animal died” value was 7 days and 12 days; the “Identification as transdifferentiation agent by the assay” value was “transdifferentiation agents”.

As for `Cl.Cl.Cl.Cl.NCCNCCNCCN` [trien, triethylenetetramine tetrahydrochloride], the “Direction of chromatophore transdifferentiation from macro observations and photographs of whole animals” value in data set [1] is recorded as “transdifferentiate melanophores to xanthophores”.

`O[C@H]1[C@H](O)[C@@H](O)[C@H](O)[C@@H](O)[C@H]1O` [myo-inositol]: in data set [1], the “Direction of chromatophore transdifferentiation from macro observations and photographs of whole animals” value is “transdifferentiate melanophores to xanthophores”; the “Identification as transdifferentiation agent by the assay” value is on record as “transdifferentiation agents”.

`CC1=C(/C=C/C(C)=C/C=C/C(C)=C/C=C/C=C(C)/C=C/C=C(C)/C=C/C2=C(C)CCCC2(C)C)C(C)(C)CCC1` [Beta-carotene, beta-carotene]: in data set [3] (about 33 mg/ml in 0.5% THF), the “Cell death compared with control cultures” value is given as “a large segment of the starting population died” and the “Mitotic figures in remaining cell population” value is “no mitotic figures observed”. For the same compound, the “Morphology of remaining cells” value in data set [3] (about 33 mg/ml in 0.5% THF, Giemsa stain) is “most had triangular morphology and a large nucleus, consistent with neural cells, or were fusiform in shape, consistent with neuroglial or neurilemmal (Schwann) cells”.

For `Nc1nc2c(ncn2[C@@H]2O[C@@H]3COP(=O)(O)O[C@H]3[C@H]2O)c(=O)[nH]1` [cGMP, guanosine 3′,5′-cyclic monophosphate], in data set [1], the “Cells containing both melanosomes and pterinosomes (melanophore to xanthophore transdifferentiation), light microscopy” value is “presence of melanosomes and pterinosomes in several cells”; the “Colour of the animal by inspection” value is “lighter by inspection”; the “Time on feeding at which the animal died” value was 22 days; the “Identification as transdifferentiation agent by the assay” value was “transdifferentiation agents”.

On to `Nc1nc2c(ncn2[C@@H]2O[C@H](CO)[C@@H](O)[C@H]2O)c(=O)[nH]1` [guanosine], for which, in data set [1], the “Direction of chromatophore transdifferentiation from macro observations and photographs of whole animals” value was “transdifferentiate melanophores to xanthophores”. Also, in data set [3] (Giemsa stain), the “Phenotypic changes in the cell population” value is “many cells with an increased nuclear to cytoplasmic ratio; also recorded: increased number of triangular cells consistent with neural phenotypes”. The “Transdifferentiation of Axolotl chromatophores” value in data set [4] is listed as “acted as a transdifferentiation agent; also recorded: transdifferentiate from one pigmented cell type to another”.

Consider `Nc1nc2c(ncn2[C@@H]2O[C@H](COP(=O)(O)O)[C@@H](O)[C@H]2O)c(=O)[nH]1` [GMP, guanosine 5′-monophosphate], for which, in data set [1], the “Cells containing both melanosomes and pterinosomes (melanophore to xanthophore transdifferentiation), light microscopy” value is “clear evidence of transdifferentiation by the presence of cells containing both pterinosomes and melanosomes; also recorded: transdifferentiating from a melanocyte into a xanthophore”; the “Colour of the animal by inspection” value was “markedly lighter by inspection and had a yellow hue”; the “Identification as transdifferentiation agent by the assay” value is recorded as “transdifferentiation agents”. For the same compound, in data set [1] (fed 67 days), the “Cells and organelles in skin, electron microscopy” value is “many cells in which both melanosomes and pterinosomes were, present; also recorded: organelles which appeared to be hybrids of melanosomes and pterinosomes”.
